# Reference: patent publication US20140348819A1, “Methods of Treating Cancer” (Dana-Farber Cancer Institute, Inc., priority 2011, published 2014)
# System: six V600E BRAF melanoma cell lines
# Test: Screening of recombinant RTK ligands for ability to confer resistance to BRAFi (PLX4720) or MEKi (PD184352) (Table 4)
# Type: cell-based, human
# Set-up: ability of recombinant RTK ligand to confer resistance / ability of recombinant RTK ligand to confer resistance (screening value): scale not given here
# Protocol: HGF is the only one that can substantially confer drug resistance to the cell lines.
# The complexity of the tumor microenvironment is much greater than an in vitro co-culture system. Therefore, the inventors explored whether the activation of other RTKs could result in a similar resistance as that observed with the activation of MET. To this end, six V600E BRAF melanoma cell lines were tested for their resistance to either BRAFi (PLX4720) or MEKi (PD184352) after the addition of 22 RTK ligands that have the potential of activating almost all known RTKs. […] The activation of a selected subset of these RTKs was confirmed by western blotting and by high throughput tyrosine kinase phosphorylation profiling.
substance,measurement,setting,value
Collagen II,ability of recombinant RTK ligand to confer resistance,"A2058, PD184352 - 1 uM, ligand 6.25 ng/ml",0.97
same,ability of recombinant RTK ligand to confer resistance,"A2058, PD184352 - 1 uM, ligand 25 ng/ml",0.97
same,ability of recombinant RTK ligand to confer resistance,"A2058, PD184352 - 1 uM, ligand 100 ng/ml",0.99
same,ability of recombinant RTK ligand to confer resistance,"A2058, PD184352 - 1 uM, ligand 400 ng/ml",1.00
same,ability of recombinant RTK ligand to confer resistance,"A2058, PD184352 - 1 uM, ligand 1600 ng/ml",0.92
same,ability of recombinant RTK ligand to confer resistance,"A2058, PLX4720 - 2 uM, ligand 6.25 ng/ml",0.95
same,ability of recombinant RTK ligand to confer resistance,"A2058, PLX4720 - 2 uM, ligand 25 ng/ml",0.99
same,ability of recombinant RTK ligand to confer resistance,"A2058, PLX4720 - 2 uM, ligand 100 ng/ml",0.96
same,ability of recombinant RTK ligand to confer resistance,"A2058, PLX4720 - 2 uM, ligand 400 ng/ml",0.95
same,ability of recombinant RTK ligand to confer resistance,"A2058, PLX4720 - 2 uM, ligand 1600 ng/ml",0.96
same,ability of recombinant RTK ligand to confer resistance,"C32, PD184352 - 1 uM, ligand 6.25 ng/ml",0.99
same,ability of recombinant RTK ligand to confer resistance,"C32, PD184352 - 1 uM, ligand 25 ng/ml",1.03
same,ability of recombinant RTK ligand to confer resistance,"C32, PD184352 - 1 uM, ligand 100 ng/ml",1.06
same,ability of recombinant RTK ligand to confer resistance,"C32, PD184352 - 1 uM, ligand 400 ng/ml",1.18
same,ability of recombinant RTK ligand to confer resistance,"C32, PD184352 - 1 uM, ligand 1600 ng/ml",1.14
same,ability of recombinant RTK ligand to confer resistance,"C32, PLX4720 - 2 uM, ligand 6.25 ng/ml",1.03
same,ability of recombinant RTK ligand to confer resistance,"C32, PLX4720 - 2 uM, ligand 25 ng/ml",0.99
same,ability of recombinant RTK ligand to confer resistance,"C32, PLX4720 - 2 uM, ligand 100 ng/ml",0.99
same,ability of recombinant RTK ligand to confer resistance,"C32, PLX4720 - 2 uM, ligand 400 ng/ml",1.00
same,ability of recombinant RTK ligand to confer resistance,"C32, PLX4720 - 2 uM, ligand 1600 ng/ml",1.02
same,ability of recombinant RTK ligand to confer resistance,"Colo 829, PD184352 - 1 uM, ligand 6.25 ng/ml",0.95
same,ability of recombinant RTK ligand to confer resistance,"Colo 829, PD184352 - 1 uM, ligand 25 ng/ml",1.02
same,ability of recombinant RTK ligand to confer resistance,"Colo 829, PD184352 - 1 uM, ligand 100 ng/ml",1.04
same,ability of recombinant RTK ligand to confer resistance,"Colo 829, PD184352 - 1 uM, ligand 400 ng/ml",1.02
same,ability of recombinant RTK ligand to confer resistance,"Colo 829, PD184352 - 1 uM, ligand 1600 ng/ml",0.99
same,ability of recombinant RTK ligand to confer resistance,"Colo 829, PLX4720 - 2 uM, ligand 6.25 ng/ml",1.00
same,ability of recombinant RTK ligand to confer resistance,"Colo 829, PLX4720 - 2 uM, ligand 25 ng/ml",1.13
same,ability of recombinant RTK ligand to confer resistance,"Colo 829, PLX4720 - 2 uM, ligand 100 ng/ml",1.06
same,ability of recombinant RTK ligand to confer resistance,"Colo 829, PLX4720 - 2 uM, ligand 400 ng/ml",1.02
same,ability of recombinant RTK ligand to confer resistance,"Colo 829, PLX4720 - 2 uM, ligand 1600 ng/ml",0.98
same,ability of recombinant RTK ligand to confer resistance,"G-361, PD184352 - 1 uM, ligand 6.25 ng/ml",0.96
same,ability of recombinant RTK ligand to confer resistance,"G-361, PD184352 - 1 uM, ligand 25 ng/ml",1.00
same,ability of recombinant RTK ligand to confer resistance,"G-361, PD184352 - 1 uM, ligand 100 ng/ml",0.96
same,ability of recombinant RTK ligand to confer resistance,"G-361, PD184352 - 1 uM, ligand 400 ng/ml",1.01
same,ability of recombinant RTK ligand to confer resistance,"G-361, PD184352 - 1 uM, ligand 1600 ng/ml",1.03
same,ability of recombinant RTK ligand to confer resistance,"G-361, PLX4720 - 2 uM, ligand 6.25 ng/ml",0.97
same,ability of recombinant RTK ligand to confer resistance,"G-361, PLX4720 - 2 uM, ligand 25 ng/ml",0.91
same,ability of recombinant RTK ligand to confer resistance,"G-361, PLX4720 - 2 uM, ligand 100 ng/ml",0.92
same,ability of recombinant RTK ligand to confer resistance,"G-361, PLX4720 - 2 uM, ligand 400 ng/ml",0.96
same,ability of recombinant RTK ligand to confer resistance,"G-361, PLX4720 - 2 uM, ligand 1600 ng/ml",0.92
same,ability of recombinant RTK ligand to confer resistance,"SK-MEL-5, PD184352 - 1 uM, ligand 6.25 ng/ml",0.96
same,ability of recombinant RTK ligand to confer resistance,"SK-MEL-5, PD184352 - 1 uM, ligand 25 ng/ml",0.92
same,ability of recombinant RTK ligand to confer resistance,"SK-MEL-5, PD184352 - 1 uM, ligand 100 ng/ml",0.94
same,ability of recombinant RTK ligand to confer resistance,"SK-MEL-5, PD184352 - 1 uM, ligand 400 ng/ml",0.99
same,ability of recombinant RTK ligand to confer resistance,"SK-MEL-5, PD184352 - 1 uM, ligand 1600 ng/ml",0.94
same,ability of recombinant RTK ligand to confer resistance,"SK-MEL-5, PLX4720 - 2 uM, ligand 6.25 ng/ml",1.03
same,ability of recombinant RTK ligand to confer resistance,"SK-MEL-5, PLX4720 - 2 uM, ligand 25 ng/ml",1.10
same,ability of recombinant RTK ligand to confer resistance,"SK-MEL-5, PLX4720 - 2 uM, ligand 100 ng/ml",1.06
same,ability of recombinant RTK ligand to confer resistance,"SK-MEL-5, PLX4720 - 2 uM, ligand 400 ng/ml",1.00
same,ability of recombinant RTK ligand to confer resistance,"SK-MEL-5, PLX4720 - 2 uM, ligand 1600 ng/ml",1.08
same,ability of recombinant RTK ligand to confer resistance,"SK-MEL-28, PD184352 - 1 uM, ligand 6.25 ng/ml",0.98
same,ability of recombinant RTK ligand to confer resistance,"SK-MEL-28, PD184352 - 1 uM, ligand 25 ng/ml",1.10
same,ability of recombinant RTK ligand to confer resistance,"SK-MEL-28, PD184352 - 1 uM, ligand 100 ng/ml",0.98
same,ability of recombinant RTK ligand to confer resistance,"SK-MEL-28, PD184352 - 1 uM, ligand 400 ng/ml",0.94
same,ability of recombinant RTK ligand to confer resistance,"SK-MEL-28, PD184352 - 1 uM, ligand 1600 ng/ml",1.07
same,ability of recombinant RTK ligand to confer resistance,"SK-MEL-28, PLX4720 - 2 uM, ligand 6.25 ng/ml",0.94
same,ability of recombinant RTK ligand to confer resistance,"SK-MEL-28, PLX4720 - 2 uM, ligand 25 ng/ml",1.12
same,ability of recombinant RTK ligand to confer resistance,"SK-MEL-28, PLX4720 - 2 uM, ligand 100 ng/ml",0.98
same,ability of recombinant RTK ligand to confer resistance,"SK-MEL-28, PLX4720 - 2 uM, ligand 400 ng/ml",0.95
same,ability of recombinant RTK ligand to confer resistance,"SK-MEL-28, PLX4720 - 2 uM, ligand 1600 ng/ml",0.96
